# According to patent publication US20150238487A1, “NOVEL ERGOLINE DERIVATIVES AND USES THEREOF” (MAP Pharmaceuticals, Inc., priority 2012, published 2015):
# Assays:
# [1] = test system: VIP/PACAP (PAC1/VPAC1/VPAC2); assay: Aequorin assay, VIP/PACAP receptors; format: cell-based, human; details: CHO-AEQ
# Method: (§1) Receptor […] activity assays were performed using 8′OH-2-CF3-dihydroergotamine (8′OH-2-CF3-DHE). Table 1 summarizes the cell lines (CHO-K1/HEK293 transfected with relevant human receptor) and the assays performed to detect any agonist or antagonist activity.
# Aequorin assays were conducted to monitor activity for 8′OH-2CF3-dihydroergotamine (8′OH-2CF3-DHE) against the receptors indicated in Table 1 above (except for mGlu3 and mGlu5). CHO-K1 cells coexpressing mitochondrial apoaequorin and the recombinant human receptor of interest were grown to mid-log phase in culture media without antibiotics and then detached with PBS-EDTA, centrifuged and resuspended in assay buffer (DMEM/HAM's F12 with HEPES, without phenol red+0.1% BSA, protease free) at a concentration of 1×10^6 cell/mL. […]
# 50 μL of the cell suspension was mixed with 50 μL of test or reference agonist in a 96-well plate. The resulting emission of light was recorded using Hamamatsu Functional Drug Screening System 6000 (FDSS 6000) luminometer. […]
# To standardize the emission of recorded light (and determine of the “100% signal”) across plates and across different experiments, some wells contained 100 μM digitonin or a saturating concentration of ATP (20 μM).
# [2] = molecular target: T1, Serotonin 5-HT1D (Homo sapiens, UniProt P28221); assay: GTPγ[35S] assay, Serotonin 5-HT1D; format: biochemical; details: agonism, CHO-K1 membranes
# T1 construct: expressed in transfected cells; host or cells: CHO-K1 (membrane extracts)
# Method: as §1
# GTPγS studies were conducted to monitor agonist activity for 8′OH-2CF3-dihydroergotamine (8′OH-2CF3-DHE) against the receptors indicated in Table 1 above. Reagents used were the following: Assay buffer (20 mM HEPES, pH 7.4; 100 mM NaCl; 10 μg/mL saponin; 30 mM MgCl2); Membranes (recombinant human receptor membrane extracts were thawed on ice and diluted in assay buffer to give 1000 μg/mL ([…]) and kept on ice); GDP (diluted in assay buffer to give 30 μM solution (3 μM final concentration); beads (PVT-WGA (Amersham, RPNQ001), diluted in assay buffer at 25 mg/mL (0.25 mg/10 μL)); GTPγ^35S (Perkin Elmer, NEG030X), diluted in assay buffer to give 0.1 nM (final concentration); and ligand (agonist/antagonist diluted in assay buffer).
# Membranes were mixed with GDP (1:1) and incubated for at least 15 minutes on ice. In parallel GTPγ^35S was mixed with the beads (1:1) just before starting the reaction. […] The plates were then centrifuged for 10 minutes at 2000 rpm and incubated at room temperature for 1 hour and counted for 1 min/well with a Perkin Elmer TopCount reader.
# [3] = molecular target: T2, Dopamine D1 (Homo sapiens, UniProt P21728); assay: cAMP HTRF assay, Dopamine D1; format: cell-based; details: CHO-K1, cAMP
# T2 construct: expressed in transfected cells; host or cells: CHO-K1
# Method: as §1
# cAMP HTRF (Gs) studies were conducted to monitor activity for 8′OH-2CF3-dihydroergotamine (8′OH-2CF3-DHE) against the receptors indicated in Table 1 above. Cells expressing the human recombinant receptor of interest were grown in media without antibiotic and detached by gentle flushing with PBS-EDTA (5 mM EDTA), recovered by centrifugation and resuspended in assay buffer (KRH: 5 mM KCl, 1.25 mM MgSO4, 124 mM NaCl, 25 mM HEPES, 13.3 mM glucose, 1.25 mM KH2PO4, 1.45 mM CaCl2, 0.5 g/L BSA). Dose response curves were performed in parallel with the reference compounds. For agonist tests (96-well plates), 12 μL of cells was mixed with 12 μL of the test compound at increasing concentrations and then incubated for 30 minutes at room temperature. Lysis buffer was added and after a 1 hour incubation, cAMP concentrations was determined according to the manufacturer specification with the HTRF kit. […] Lysis buffer was added and after a 1 hour incubation, cAMP concentrations were determined according to the manufacturer specification, with the HTRF kit.
# T2 sequence (P21728 whole entry): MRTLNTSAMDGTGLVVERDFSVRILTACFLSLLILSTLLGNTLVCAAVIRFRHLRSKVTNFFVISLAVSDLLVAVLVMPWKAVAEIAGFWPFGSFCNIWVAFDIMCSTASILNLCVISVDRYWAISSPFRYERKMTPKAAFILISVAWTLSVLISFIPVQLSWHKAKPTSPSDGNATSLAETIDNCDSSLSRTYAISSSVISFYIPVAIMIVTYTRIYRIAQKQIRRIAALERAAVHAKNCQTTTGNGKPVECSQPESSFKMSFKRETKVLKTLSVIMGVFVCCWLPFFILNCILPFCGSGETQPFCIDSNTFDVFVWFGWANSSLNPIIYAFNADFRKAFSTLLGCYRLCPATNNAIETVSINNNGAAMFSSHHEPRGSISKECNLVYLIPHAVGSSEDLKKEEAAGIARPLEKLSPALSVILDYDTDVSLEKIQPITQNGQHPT
# T1 sequence (P28221 whole entry): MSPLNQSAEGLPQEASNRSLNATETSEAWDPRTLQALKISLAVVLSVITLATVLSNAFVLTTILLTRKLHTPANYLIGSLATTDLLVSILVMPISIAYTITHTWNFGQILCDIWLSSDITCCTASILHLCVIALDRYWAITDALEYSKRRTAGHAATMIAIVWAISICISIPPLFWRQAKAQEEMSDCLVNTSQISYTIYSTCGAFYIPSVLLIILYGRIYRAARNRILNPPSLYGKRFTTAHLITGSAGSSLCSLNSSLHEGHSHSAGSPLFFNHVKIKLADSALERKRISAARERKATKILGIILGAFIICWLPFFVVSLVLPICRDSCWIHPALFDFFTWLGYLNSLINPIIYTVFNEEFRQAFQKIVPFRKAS
structure (smiles),measurement,setting,value
"CN1C[C@H](C(=O)N[C@]2(C)O[C@@]3(O)[C@@H]4CC[C@@H](O)N4C(=O)[C@H](Cc4ccccc4)N3C2=O)C[C@@H]2c3cccc4[nH]c(C(F)(F)F)c(c34)C[C@H]21 [8′OH-2-CF3-DHE, 8′-Hydroxy-2-CF3-dihydroergotamine]","Activity (Agonism: EC50; Antagonism: IC50), VIP/PACAP (PAC1/VPAC1/VPAC2)",[1],Inactive
same,EC50,[2],5.27 nM
same,"Activity (Agonism: EC50; Antagonism: IC50), D1",[3],Inactive
